Consider nine molecules from ChEMBL document CHEMBL1629628, “Methicillin-resistant and -susceptible Staphylococcus aureus strains of clonal lineages ST398 and ST9 from swine carry the multidrug resistance gene cfr” (2009).

Type in all cases: functional
Assay [1] concerns Staphylococcus aureus. Description: Antimicrobial activity against methicillin-resistant Staphylococcus aureus ST398 expressing cfr, fexA, erm(A), tet(M) and mecA genes.
Assay [2] concerns Staphylococcus aureus. Description: Antimicrobial activity against methicillin-susceptible Staphylococcus aureus ST9 expressing cfr, fexA and erm(C) genes.
Assay [3] deals with Staphylococcus aureus. Description: Antimicrobial activity against Staphylococcus aureus RN4220.
Assay [4] relates to Staphylococcus aureus. As to the kind of experiment: Antimicrobial activity against Staphylococcus aureus RN4220 transformed with Staphylococcus aureus ST398 plasmid pSCFS3 carrying cfr and fexA genes.
Assay [5] deals with Staphylococcus aureus. Description: Antimicrobial activity against Staphylococcus aureus RN4220 transformed with Staphylococcus aureus ST9 plasmid pSCFS3 carrying cfr and fexA genes.

Values after ≈ are worked out from the molar mass of the structure shown.

One may read the MIC as the least concentration at which growth counts as inhibited. The low end stands for inhibition by little substance, the high end for a need for much substance. In the case of `O=C(N[C@H](CO)[C@H](O)c1ccc([N+](=O)[O-])cc1)C(Cl)Cl` [CHLORAMPHENICOL], the minimum inhibitory concentration (MIC) is at least 128 µg/mL against Staphylococcus aureus [1]; at least 128 µg/mL against Staphylococcus aureus [2]; 4 µg/mL (≈ 12.4 µM) against Staphylococcus aureus [3]; at least 128 µg/mL in the assay with Staphylococcus aureus [4]; at least 128 µg/mL in the assay with Staphylococcus aureus [5].
With `CCC[C@@H]1C[C@@H](C(=O)N[C@@H]([C@H]2O[C@H](SC)[C@H](O)[C@@H](O)[C@H]2O)[C@H](C)Cl)N(C)C1` [CLINDAMYCIN], the MIC against Staphylococcus aureus [1] was at least 64 µg/mL; in the assay with Staphylococcus aureus [2], at least 64 µg/mL; with Staphylococcus aureus [3], 0.125 µg/mL (≈ 0.294 µM); in the assay with Staphylococcus aureus [4], at least 64 µg/mL; in the assay on Staphylococcus aureus [5], at least 64 µg/mL.
Turning to `CC[C@H]1OC(=O)[C@H](C)[C@@H](O[C@H]2C[C@@](C)(OC)[C@@H](O)[C@H](C)O2)[C@H](C)[C@@H](O[C@@H]2O[C@H](C)C[C@H](N(C)C)[C@H]2O)[C@](C)(O)C[C@@H](C)C(=O)[C@H](C)[C@@H](O)[C@]1(C)O` [ERYTHROMYCIN], the MIC is at least 64 µg/mL with Staphylococcus aureus [1]; at least 64 µg/mL against Staphylococcus aureus [2]; 0.25 µg/mL (≈ 0.341 µM) against Staphylococcus aureus [3]; 0.25 µg/mL (≈ 0.341 µM) against Staphylococcus aureus [4]; 0.25 µg/mL (≈ 0.341 µM) against Staphylococcus aureus [5].
Turning to `CS(=O)(=O)c1ccc([C@@H](O)[C@@H](CF)NC(=O)C(Cl)Cl)cc1` [FLORFENICOL], the MIC in the assay with Staphylococcus aureus [1] was at least 128 µg/mL; against Staphylococcus aureus [2], at least 128 µg/mL; against Staphylococcus aureus [3], 2 µg/mL (≈ 5.58 µM); in the assay with Staphylococcus aureus [4], 128 µg/mL (≈ 357 µM); with Staphylococcus aureus [5] it was 128 µg/mL (≈ 357 µM).
On to `CC(=O)NC[C@H]1CN(c2ccc(N3CCOCC3)c(F)c2)C(=O)O1` [LINEZOLID], for which the minimum inhibitory concentration (MIC) with Staphylococcus aureus [2] was 8 µg/mL (≈ 23.7 µM); against Staphylococcus aureus [3] it was 0.5 µg/mL (≈ 1.48 µM).
With `Cc1onc(-c2ccccc2)c1C(=O)N[C@@H]1C(=O)N2[C@@H]1SC(C)(C)[C@@H]2C(=O)O` [OXACILLIN], the MIC in the assay with Staphylococcus aureus [1] was at least 32 µg/mL; in the assay with Staphylococcus aureus [2], 0.06 µg/mL (≈ 0.149 µM); in the assay on Staphylococcus aureus [3], 0.06 µg/mL (≈ 0.149 µM); in the assay on Staphylococcus aureus [4] it was 0.06 µg/mL (≈ 0.149 µM); with Staphylococcus aureus [5], 0.06 µg/mL (≈ 0.149 µM).
For `CN(C)[C@@H]1C(O)=C(C(N)=O)C(=O)[C@@]2(O)C(O)=C3C(=O)c4c(O)cccc4[C@@](C)(O)[C@H]3C[C@@H]12` [TETRACYCLINE], the minimal inhibitory concentration (MIC) was found to be 64 µg/mL (≈ 144 µM) with Staphylococcus aureus [1]; 0.12 µg/mL (≈ 0.27 µM) against Staphylococcus aureus [2]; 0.25 µg/mL (≈ 0.563 µM) against Staphylococcus aureus [3]; 0.25 µg/mL (≈ 0.563 µM) against Staphylococcus aureus [4]; 0.25 µg/mL (≈ 0.563 µM) against Staphylococcus aureus [5].
As for `C=C[C@]1(C)C[C@@H](OC(=O)CSCCN(CC)CC)[C@]2(C)[C@H](C)CC[C@]3(CCC(=O)[C@H]32)[C@@H](C)[C@@H]1O` [TIAMULIN], the MIC against Staphylococcus aureus [1] is at least 128 µg/mL; in the assay on Staphylococcus aureus [2] it was at least 128 µg/mL; with Staphylococcus aureus [3] it was 0.063 µg/mL (≈ 0.128 µM); with Staphylococcus aureus [4], at least 128 µg/mL; in the assay on Staphylococcus aureus [5], at least 128 µg/mL.
Turning to `CC1=C\[C@@H](O)CC(=O)Cc2nc(co2)C(=O)N2CCC=C2C(=O)O[C@H](C(C)C)[C@H](C)/C=C/C(=O)NC\C=C\1` [VIRGINIAMYCIN FACTOR M1], the minimum inhibitory concentration (MIC) against Staphylococcus aureus [1] came out at 128 µg/mL (≈ 244 µM); with Staphylococcus aureus [2], 128 µg/mL (≈ 244 µM); against Staphylococcus aureus [3] it was 4 µg/mL (≈ 7.61 µM); with Staphylococcus aureus [4], 128 µg/mL (≈ 244 µM); with Staphylococcus aureus [5], 128 µg/mL (≈ 244 µM).
